Laboratory results from the supplement of paper PMC11208160.

Assay: recombinant barcode read abundance after kanamycin selection (control-corrected) (log10(CPM+1)); higher = more efficient recombination; sequences stand for … in AGTGCAGAGAAAATCGGCCAGTTTTCTCTGCCTGCAGTCCGCATGCCGT…AGATTTATGCAGCGGACTGCCTTTCTCCCAAAGTGATAAACCGGACAGTATCATGGACCGGTTTTCCCGGTAATCCGTATTTGCAAGGTTGGTTTCACT; site = the 11-nt target
How it was run: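 Reported as log10(CPM+1), each value stands for recombination efficiency. That efficiency is the averaged, control-corrected counts per million of barcodes found at recombinant junctions. Cells from a pooled E. coli library pairing targets with IS621 bridge RNA target-binding loops were plated twice on chloramphenicol/ampicillin LB agar (control) and twice on chloramphenicol/ampicillin/kanamycin with 0.1 mM IPTG.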
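Further: IS621 recombinase and bridge RNA in Escherichia coli cells.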

Row | Sequence | recombinant barcode read abundance (log10)
1 | CCTGTCACTTGGGTTCTAACCTGTTGCCA (site CCTGTCACTTG) | 0.474
2 | CCTGTCACTTGGGTTCTAACCTGTTGCCA (site TACCGAGCTCA) | 0.11
3 | CCTTGAGCTTGGGTTCTAACCTGTTGCTG (site CCTTGAGCTCA) | 0.308
4 | CCTTGAGCTTGGGTTCTAACCTGTTGCTG (site GCTTGAGCTCG) | 0.0694
5 | CCTTGTACTTGGGTTCTAACCTGTTGCTT (site AGCATCTCTCG) | 0.0216
6 | CCTTGTACTTGGGTTCTAACCTGTTGCTT (site CCTTGTACTAA) | 0.131
7 | CCTTTGACTTGGGTTCTAACCTGTTGCTT (site CCTTTGACTAA) | 0.0825
8 | CCTTTGACTTGGGTTCTAACCTGTTGCTT (site CCTTTGTCTAA) | 0.156
9 | CGAACCGCTTGGGTTCTAACCTGTTGCCT (site CAAACCGCTAG) | 0.26
10 | CGAACCGCTTGGGTTCTAACCTGTTGCCT (site CCAACCGCTAG) | 0.0439
11 | CGAACCGCTTGGGTTCTAACCTGTTGCCT (site CGAACCGCTAG) | 0.974
12 | CGAACCGCTTGGGTTCTAACCTGTTGCCT (site CTAACCGCTAG) | 0.0258
13 | CGAACCTCTTGGGTTCTAACCTGTTGCCG (site CGAACCTCTCG) | 0.903
14 | CGAACCTCTTGGGTTCTAACCTGTTGCCG (site CGAATCCCTCG) | 0.0358
15 | CGAACTACTTGGGTTCTAACCTGTTGCAT (site CGAACTACTAA) | 0.215
16 | CGAACTACTTGGGTTCTAACCTGTTGCAT (site CGAACTACTAC) | 0.168
17 | CGAACTACTTGGGTTCTAACCTGTTGCAT (site CGAACTACTAG) | 0.0576
18 | CGAACTACTTGGGTTCTAACCTGTTGCAT (site CGAACTACTAT) | 0.239
19 | CGAACTACTTGGGTTCTAACCTGTTGCTT (site CGAACTACTAA) | 0.142
20 | CGAACTACTTGGGTTCTAACCTGTTGCTT (site CGAACTACTAC) | 0.205
21 | CGAACTACTTGGGTTCTAACCTGTTGCTT (site CGAACTACTAG) | 0.202
22 | CGAACTACTTGGGTTCTAACCTGTTGCTT (site CGAACTACTAT) | 0.0384

Row | Sequence | recombinant barcode read abundance (log10)
23 | CGAAGGACTTGGGTTCTAACCTGTTGCTA (site CGAAGGACTTA) | 0.973
24 | CGAAGGACTTGGGTTCTAACCTGTTGCTA (site CTAAGGACTTA) | 0.231
25 | CGAATCACTTGGGTTCTAACCTGTTGCCT (site CGAATCACTAG) | 0.686
26 | CGAATCACTTGGGTTCTAACCTGTTGCCT (site CGAATCCCTAG) | 0.062
27 | CGAATCACTTGGGTTCTAACCTGTTGCCT (site CGAATCGCTAG) | 0.182
28 | CGAATCACTTGGGTTCTAACCTGTTGCCT (site CGAATCTCTAG) | 0.0867
29 | CGAATCCCTTGGGTTCTAACCTGTTGCCG (site CGAACCTCTCG) | 0.185
30 | CGAATCCCTTGGGTTCTAACCTGTTGCCG (site CGAATCCCTCG) | 0.906
31 | CGACAATCTTGGGTTCTAACCTGTTGCTT (site CGACAATCTAA) | 0.0157
32 | CGACAATCTTGGGTTCTAACCTGTTGCTT (site TCTAGGACTTT) | 0.27
33 | CGACACACTTGGGTTCTAACCTGTTGCCT (site CGACACACTAG) | 0.135
34 | CGACACACTTGGGTTCTAACCTGTTGCCT (site CGCCACACTAG) | 0.0974
35 | CGACACACTTGGGTTCTAACCTGTTGCCT (site CGGCACACTAG) | 0.0559
36 | CGACACACTTGGGTTCTAACCTGTTGCCT (site CGTCACACTAG) | 0.0536
37 | CGACAGGCTTGGGTTCTAACCTGTTGCCT (site AGACTGGCTAG) | 0.073
38 | CGACAGGCTTGGGTTCTAACCTGTTGCCT (site CGACAGGCTAG) | 0.439
39 | CGACGCACTTGGGTTCTAACCTGTTGCGG (site CGACGCACTCC) | 0.584
40 | CGACGCACTTGGGTTCTAACCTGTTGCGG (site TAGTTGTCTAA) | 0.0412
41 | CGAGACGCTTGGGTTCTAACCTGTTGCCT (site CCATACGCTAG) | 0.109
42 | CGAGACGCTTGGGTTCTAACCTGTTGCCT (site CGAGACGCTAG) | 1.87
43 | CGAGAGACTTGGGTTCTAACCTGTTGCTT (site CAAGAGTCTAA) | 0.0807
44 | CGAGAGACTTGGGTTCTAACCTGTTGCTT (site CGAGAGACTAA) | 0.994

Row | Sequence | recombinant barcode read abundance (log10)
45 | CGAGAGTCTTGGGTTCTAACCTGTTGCGG (site AGAGAGGCTCC) | 0.119
46 | CGAGAGTCTTGGGTTCTAACCTGTTGCGG (site CGAGAGTCTCC) | 1.31
47 | CGAGATTCTTGGGTTCTAACCTGTTGCCT (site CAAGATTCTAG) | 0.331
48 | CGAGATTCTTGGGTTCTAACCTGTTGCCT (site CCAGATTCTAG) | 0.271
49 | CGAGATTCTTGGGTTCTAACCTGTTGCCT (site CGAGATTCTAG) | 0.755
50 | CGAGATTCTTGGGTTCTAACCTGTTGCCT (site CTAGATTCTAG) | 0.332
51 | CGAGCTCCTTGGGTTCTAACCTGTTGCGT (site CGAGCTCCTAA) | 0.0215
52 | CGAGCTCCTTGGGTTCTAACCTGTTGCGT (site CGAGCTCCTAC) | 2.04
53 | CGAGCTCCTTGGGTTCTAACCTGTTGCGT (site CGAGCTCCTAG) | 0.813
54 | CGAGCTCCTTGGGTTCTAACCTGTTGCGT (site CGAGCTCCTAT) | 0.766
55 | CGAGGACCTTGGGTTCTAACCTGTTGCCT (site CCAGGACCTAG) | 0.729
56 | CGAGGACCTTGGGTTCTAACCTGTTGCCT (site CGAGGACCTAG) | 2.3
57 | CGAGGGACTTGGGTTCTAACCTGTTGCCT (site CGAGGGACTAG) | 1.81
58 | CGAGGGACTTGGGTTCTAACCTGTTGCCT (site CGAGGGCCTAG) | 0.0632
59 | CGAGGGACTTGGGTTCTAACCTGTTGCCT (site CGAGGGGCTAG) | 0.807
60 | CGAGGGACTTGGGTTCTAACCTGTTGCCT (site CGAGGGTCTAG) | 0.056
61 | CGAGGGCCTTGGGTTCTAACCTGTTGCCT (site CGAGGGACTAG) | 0.049
62 | CGAGGGCCTTGGGTTCTAACCTGTTGCCT (site CGAGGGCCTAG) | 0.603
63 | CGAGGGCCTTGGGTTCTAACCTGTTGCCT (site CGAGGGGCTAG) | 0.0635
64 | CGAGGGCCTTGGGTTCTAACCTGTTGCCT (site CGAGGGTCTAG) | 0.345
65 | CGAGTGACTTGGGTTCTAACCTGTTGCAG (site ATTAACTCTAG) | 0.0869
66 | CGAGTGACTTGGGTTCTAACCTGTTGCAG (site CGAGTGACTCT) | 1.32
